Assay results from PubChem BioAssay (NCI).
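Method: 48-hour compound exposure of cells in 96-well plates, five concentrations, linear interpolation of endpoints. The concentration for 50% growth inhibition is given as GI50. At the TGI there is no net growth.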

How the values were obtained:
Assay in all cases: NCI anticancer screen, dose series, 48 h
[1] = tested on: MALME-3M melanoma
[2] = tested on: NCI-H460 lung
[3] = tested on: CAKI-1 renal
[4] = tested on: T-47D breast
[5] = tested on: LOX IMVI melanoma
[6] = tested on: U251 CNS
[7] = tested on: SK-MEL-2 melanoma
[8] = tested on: CCRF-CEM leukemia
[9] = tested on: IGROV1 ovarian
[10] = tested on: UACC-62 melanoma
[11] = tested on: SF-539 CNS
[12] = tested on: OVCAR-5 ovarian
[13] = tested on: SK-MEL-5 melanoma
[14] = tested on: HT29 colon
[15] = tested on: KM12 colon
[16] = tested on: EKVX NSCLC
[17] = tested on: NCI-H23 lung
[18] = tested on: OVCAR-4 ovarian
[19] = tested on: NCI/ADR-RES ovarian
[20] = tested on: DU-145 prostate
[21] = tested on: UACC-257 melanoma
[22] = tested on: SK-OV-3 ovarian
[23] = tested on: PC-3 prostate
[24] = tested on: ACHN renal
[25] = tested on: OVCAR-3 ovarian
[26] = tested on: SK-MEL-28 melanoma
[27] = tested on: RPMI-8226 leukemia
[28] = tested on: SW-620 colon
[29] = tested on: COLO 205 colon
[30] = tested on: M14 melanoma
[31] = tested on: NCI-H522 lung
[32] = tested on: SN12C renal
[33] = tested on: MDA-MB-435
[34] = tested on: SNB-19 CNS
[35] = tested on: OVCAR-8 ovarian
[36] = tested on: MOLT-4 leukemia
[37] = tested on: SF-295 CNS
[38] = tested on: HCC-2998 colon
[39] = tested on: TK-10 renal
[40] = tested on: HS 578T breast
[41] = tested on: A498 renal
[42] = tested on: UO-31 renal
[43] = tested on: HOP-62 NSCLC
[44] = tested on: MCF7 breast
[45] = tested on: SF-268 CNS
[46] = tested on: HOP-92 NSCLC
[47] = tested on: BT-549 breast
[48] = tested on: NCI-H226 lung
[49] = tested on: A549 NSCLC
[50] = tested on: 786-0 renal
[51] = tested on: SNB-75 CNS
[52] = tested on: HCT-116 colon
[53] = tested on: RXF 393 renal
[54] = tested on: MDA-MB-231 breast
[55] = tested on: HCT-15 colon
[56] = tested on: HL-60(TB) leukemia
[57] = tested on: K-562 leukemia

COC(=O)[C@@]1(C)CCC[C@]2(C)[C@H]3Cc4occc4[C@H](C)[C@@H]3CC[C@@]12O
GI50 [1]: 21.3 µM
TGI [1]: 52.4 µM
GI50 [2]: 16.3 µM
TGI [2]: 49.2 µM
GI50 [3]: 41.8 µM
TGI [3]: > 100 µM
GI50 [4]: 26.4 µM
TGI [4]: > 100 µM
GI50 [5]: 18.4 µM
TGI [5]: 42.6 µM
GI50 [6]: 18.1 µM
TGI [6]: 44 µM
GI50 [7]: 26.8 µM
TGI [7]: 72.4 µM
GI50 [8]: 37.2 µM
TGI [8]: > 100 µM
GI50 [9]: 30 µM
TGI [9]: > 100 µM
GI50 [10]: 17.5 µM
TGI [10]: > 100 µM
GI50 [11]: 19.9 µM
TGI [11]: 40.2 µM
GI50 [12]: 73.7 µM
TGI [12]: > 100 µM
GI50 [13]: 21.1 µM
TGI [13]: 37.4 µM
GI50 [14]: 20.9 µM
TGI [14]: > 100 µM
GI50 [15]: 16 µM
TGI [15]: 32.8 µM
GI50 [16]: 27.7 µM
TGI [16]: 71.3 µM
GI50 [17]: 45.3 µM
TGI [17]: > 100 µM
GI50 [18]: 92.3 µM
TGI [18]: > 100 µM
GI50 [19]: 68.4 µM
TGI [19]: > 100 µM
GI50 [20]: 58.7 µM
TGI [20]: > 100 µM
GI50 [21]: 35.6 µM
TGI [21]: > 100 µM
GI50 [22]: > 100000 nM
TGI [22]: > 100 µM
GI50 [23]: 26.1 µM
TGI [23]: > 100 µM
GI50 [24]: 17.8 µM
TGI [24]: 50.2 µM
GI50 [25]: 17.3 µM
TGI [25]: 59 µM
GI50 [26]: > 100000 nM
TGI [26]: > 100 µM
GI50 [27]: 17.9 µM
TGI [27]: > 100 µM
GI50 [28]: 44.1 µM
TGI [28]: > 100 µM
GI50 [29]: 33.1 µM
TGI [29]: > 100 µM
GI50 [30]: 28.6 µM
TGI [30]: > 100 µM
GI50 [31]: 31.4 µM
TGI [31]: 98.5 µM
GI50 [32]: 21.1 µM
TGI [32]: 48 µM
GI50 [33]: 16.7 µM
TGI [33]: 38.7 µM
GI50 [34]: 95.5 µM
TGI [34]: > 100 µM
GI50 [35]: 35 µM
TGI [35]: > 100 µM
GI50 [36]: 17.3 µM
TGI [36]: 80.3 µM
GI50 [37]: 21.1 µM
TGI [37]: 66.8 µM
GI50 [38]: 34.3 µM
TGI [38]: 89.7 µM
GI50 [39]: 24.5 µM
TGI [39]: > 100 µM
GI50 [40]: 20.1 µM
TGI [40]: 41.4 µM
GI50 [41]: 17.9 µM
TGI [41]: 46.6 µM
GI50 [42]: 37.5 µM
TGI [42]: > 100 µM
GI50 [43]: 33.7 µM
TGI [43]: > 100 µM
GI50 [44]: 18.2 µM
TGI [44]: > 100 µM
GI50 [45]: 34 µM
TGI [45]: > 100 µM
GI50 [46]: 13.4 µM
TGI [46]: 57.9 µM
GI50 [47]: 26.9 µM
TGI [47]: 70.5 µM
GI50 [48]: 20.9 µM
TGI [48]: 64.7 µM
GI50 [49]: 34.4 µM
TGI [49]: > 100 µM
GI50 [50]: 45.8 µM
TGI [50]: > 100 µM
GI50 [51]: 55.6 µM
TGI [51]: > 100 µM
GI50 [52]: 17.6 µM
TGI [52]: 42.5 µM
GI50 [53]: 25 µM
TGI [53]: 93.1 µM
GI50 [54]: 32.4 µM
TGI [54]: > 100 µM
GI50 [55]: 73.5 µM
TGI [55]: > 100 µM

CCOC(=O)CCC(NC(=O)c1ccc(Sc2nc3cc(N)cc(N)c3nc2-c2ccccc2)cc1)C(=O)OCC (stereo not drawn)
GI50 [1]: 19.6 µM
TGI [1]: 37.2 µM
GI50 [2]: 3.05 µM
TGI [2]: > 100 µM
GI50 [3]: 2.03 µM
TGI [3]: > 41.6 µM
GI50 [4]: > 53.9 µM
TGI [4]: > 100 µM
GI50 [5]: 0.48 µM
TGI [5]: > 29.3 µM
GI50 [6]: 1.02 µM
TGI [6]: > 40.6 µM
GI50 [7]: 4.22 µM
TGI [7]: 72.4 µM
GI50 [8]: 1.31 µM
TGI [8]: > 100 µM
GI50 [9]: 6.91 µM
TGI [9]: > 100 µM
GI50 [10]: 1.03 µM
TGI [10]: > 62.4 µM
GI50 [11]: 0.0926 µM
TGI [11]: 14.7 µM
GI50 [12]: 60.5 µM
TGI [12]: > 100 µM
GI50 [13]: 1.71 µM
TGI [13]: 5.55 µM
GI50 [14]: 0.755 µM
TGI [14]: > 100 µM
GI50 [15]: 2.19 µM
TGI [15]: > 86.6 µM
GI50 [16]: 13.7 µM
TGI [16]: > 77.6 µM
GI50 [17]: 2.29 µM
TGI [17]: > 58 µM
GI50 [18]: 2.28 µM
TGI [18]: > 73.2 µM
GI50 [19]: 21.6 µM
TGI [19]: > 100 µM
GI50 [20]: 38.2 µM
TGI [20]: > 100 µM
GI50 [21]: > 41.4 µM
TGI [21]: > 63.6 µM
GI50 [22]: 2830 nM
TGI [22]: 53 µM
GI50 [23]: 2.61 µM
TGI [23]: > 100 µM
GI50 [24]: 1.3 µM
TGI [24]: 33.9 µM
GI50 [25]: 0.73 µM
TGI [25]: 2.88 µM
GI50 [26]: 884 nM
TGI [26]: 32 µM
GI50 [27]: 1.62 µM
TGI [27]: > 89.8 µM
GI50 [28]: 2.38 µM
TGI [28]: > 100 µM
GI50 [29]: 2.71 µM
GI50 [30]: 3.34 µM
GI50 [31]: 2.76 µM
GI50 [32]: 17.7 µM
TGI [32]: 44.5 µM
GI50 [33]: 11.1 µM
TGI [33]: 33.5 µM
GI50 [34]: 4.77 µM
TGI [34]: > 100 µM
GI50 [35]: 2.78 µM
TGI [35]: > 63 µM
GI50 [36]: 0.726 µM
TGI [36]: > 100 µM
GI50 [37]: 0.939 µM
TGI [37]: > 36.8 µM
GI50 [56]: 298 nM
TGI [56]: > 100 µM
GI50 [38]: 4.73 µM
TGI [38]: 17 µM
GI50 [39]: 22.4 µM
TGI [39]: > 100 µM
GI50 [40]: 10.2 µM
TGI [40]: > 87.1 µM
GI50 [42]: 4.78 µM
TGI [42]: > 100 µM
GI50 [43]: 2.23 µM
TGI [43]: 47.7 µM
GI50 [44]: 0.626 µM
TGI [44]: > 100 µM
GI50 [45]: 2.18 µM
TGI [45]: > 66.6 µM
GI50 [46]: 2.74 µM
TGI [46]: 46.2 µM
GI50 [47]: 2.3 µM
TGI [47]: 36.9 µM
GI50 [48]: 0.97 µM
TGI [48]: > 65.9 µM
GI50 [49]: 2.9 µM
TGI [49]: > 100 µM
GI50 [50]: 4.72 µM
TGI [50]: > 100 µM
GI50 [51]: 32.2 µM
TGI [51]: 63.8 µM
GI50 [52]: 1.3 µM
TGI [52]: > 100 µM
TGI [57]: 24.5 µM
GI50 [53]: 3 µM
TGI [53]: 19.4 µM
GI50 [54]: 7.96 µM
TGI [54]: 35.1 µM
GI50 [55]: 1.8 µM
TGI [55]: > 65.6 µM
